No end group written: not given here.
Columns and labels:
[1] = tested on: panel of 12 reference bacteria, comprised of 6 Gram-negative strains and 6 Gram-positive strains; format: cell-based; conditions: 6 h
Experimental: The antibacterial activities of the chemically synthesized peptides were evaluated against a panel of bacteria consisting of 6 Gram-negative strains, including E. coli ATCC 25922 (American Type Culture Collection, Manassas, VA, USA), P. aeruginosa ATCC 27853, S. Typhimurium ATCC 14028, A. baumannii KCTC (Korean Collection for Type Cultures, Jeongeup, Korea) 23254, K. pneumoniae KCTC 1726, and E. cloacae ATCC 13047, and 6 Gram-positive strains, including S. aureus ATCC 6538, B. cereus ATCC 10876, E. faecalis ATCC 29212, S. agalactiae ATCC 27956, S. dysgalactiae ATCC 27957, and S. equi ATCC 43079. Ampicillin (Sigma-Aldrich, St. Louis, MO, USA), chloramphenicol (Sigma-Aldrich), and gentamicin sulfate (Sigma-Aldrich) were used as controls for antibacterial activity. The MIC was determined by a colorimetric method using the Microbial Viability Assay Kit-WST (Dojindo, Kumamoto, Japan) according to the manufacturer’s manual and the Clinical and Laboratory Standards Institute (CLSI) guidelines (2018). Four colonies of each bacterium were inoculated into 5 mL of Luria-Bertani (LB) broth medium (BD Bioscience, Franklin Lakes, NJ, USA) or brain heart infusion broth (BHIB; BD Bioscience) at 37 °C for 6 h with shaking at 220 rpm. E. faecalis and streptococci were cultured in BHIB because of their slow growth, whereas all other bacteria were cultured in LB medium. The cells were washed by sterile saline (0.9% NaCl) twice and adjusted in a single well of a 96-well plate at a cell density of 1.5 × 10^5 CFU/well in accordance with 0.5 McFarland standard. Subsequently, 180 µL/well of fresh Mueller-Hinton broth (MHB; BD Bioscience), except for E. faecalis and streptococci using BHIB was added to the plate using BHIB. Final concentrations of 1–40 µg/mL (0.3–19.3 μM) of each peptide and reference antibiotic were added to each well. The plates were then incubated at 37 °C for 6 h. Subsequently, 10 µL of the coloring reagent was added, and the mixture was incubated at 37 °C for 2 h. The absorbance of each well was measured at 450 nm using a microplate spectrophotometer (Bio-Rad, xMark spectrophotometer, Hercules, CA, USA). MIC values were determined when the difference in the absorbance values between treatments and blanks (media and coloring reagent only) was less than 0.05. Experiments were performed in triplicate.

[2] = tested on: HaCaT cells; experiment: In vitro cytotoxicity assay, WST-1 cell viability; format: cell-based, Human
Experimental: HaCaT cells were cultured in Dulbecco’s modified Eagle’s medium (DMEM; Hyclone^TM, Logan, UT, USA) with 10% fetal bovine serum (FBS; Hyclone^TM) and 1% penicillin/streptomycin (Pen-Strep; Hyclone^TM) up to 80% confluence at 37 ℃ and 5% CO2. Cells were detached from the plate by adding 0.25% trypsin-EDTA solution (Gibco^TM; Carlsbad, CA, USA). In a 96-well plate, 2 × 10^4 cells were seeded per well and cultured for 24 h. Subsequently, the medium was replaced with 100 μL DMEM (Hyclone^TM) containing 10% heat-inactivated FBS. Peptides were added to each well at concentrations of 64 μg/mL and 160 μg/mL. As references for complete cell lysis, 64 μg/mL melittin (Sigma-Aldrich) and Triton X-100 (Sigma-Aldrich) were used. Untreated cells were used as negative controls. After 24 h incubation at 37 ℃ and 5 % CO2, 10 μL of coloring solution (Cell Proliferation Reagent WST-1^TM; Sigma Aldrich) was added to each well according to the manufacturer’s instructions. The absorbance at 450 nm (treated group and control) and 650 nm (background) was measured in each well using a microplate reader (xMarkTM spectrophotometer; Bio-Rad). The cell viability was calculated using the following equation. All experiments were performed in triplicate. Cell viability (%) = 100 × (OD (treated group) − OD(Background))/(OD (negative control) − OD (Background))(2)

ILGPALRIGGRIAGRIAGKLIGDAINRHRERNRQRRG [PD-CATH]
MIC, range over strains [1]: 0.7 to 7.3 µM | concentration at which the viability of human keratinocyte was affected [2]: 160 µg/mL

ILGRLRDLLRRGGRKIGQGLERIGQRIQGFFSNREPMEES [HA-CATH]
MIC, range over strains [1]: 1.1 to 7.3 µM

LLRRGGRKIGQGLERIGQRIQGF [ΔHA-CATH]
MIC (no observable antibacterial activity) [1]: > 13.7 µM

LNPLIKAGIFILKHRRPIGRGIEITGRGIKKFFSK [ML-CATH]
MIC, range over strains [1]: 0.3 to 8.8 µM | MICs, range [1]: 0.5 to 0.8 µM

Triton X-100
Cell Viability ± SD [2]: 8.9 ± 0.05 %
